Assay results taken from patent publication US11629201B2, “PSMA-binding agents and uses thereof” (ITM Isotope Technologies Munich SE, priority 2017, dated 2023).

System: PC-3 PIP/flu tumor-bearing mice
Experiment: Biodistribution studies in PC-3 PIP/flu tumor-bearing mice
Details: for Tumor-to-blood / Tumor-to-kidney / Tumor-to-liver: PC-3 PIP tumor

In the case of O=C(O)CCC(NC(=O)NC(CCCCNC(=O)C(Cc1ccc2ccccc2c1)NC(=O)C1CCC(CNC(=O)C(CCCCNC(=O)CCCc2ccc(I)cc2)NC(=O)CN2CCN(CC(=O)O)CCN(CC(=O)O)CCN(CC(=O)O)CC2)CC1)C(=O)O)C(=O)O (stereo not drawn) [^177Lu-PSMA-ALB-03, metal not drawn], the Tumor-to-blood (1 h p.i.) is reported as 0.31 ± 0.04, the Tumor-to-kidney (1 h p.i.) is reported as 0.48 ± 0.07 and the Tumor-to-liver (1 h p.i.) is reported as 1.64 ± 0.61. For the same molecule, the Blood (4 h p.i.) was 24.3 ± 3.60 % IA/g, the Bone (4 h p.i.) was 2.47 ± 0.39 % IA/g and the Heart (4 h p.i.) was 8.54 ± 1.18 % IA/g. It also gave an Intestines (4 h p.i.) of 3.71 ± 1.09 % IA/g, a Kidneys (4 h p.i.) of 24.5 ± 4.38 % IA/g and a Liver (4 h p.i.) of 4.56 ± 1.18 % IA/g. For the same molecule, the Lung (4 h p.i.) was 14.21 ± 3.49 % IA/g, the Muscle (4 h p.i.) was 2.04 ± 0.37 % IA/g and the “PC-3 PIP Tumor” value (4 h p.i.) was 19.9 ± 0.79 % IA/g. For the same molecule, the “PC-3 flu Tumor” value (4 h p.i.) was 5.32 ± 1.06 % IA/g, the Salivary glands (4 h p.i.) was 5.02 ± 1.17 % IA/g and the Spleen (4 h p.i.) was 4.76 ± 1.12 % IA/g. The Stomach (4 h p.i.) was 2.86 ± 1.03 % IA/g, the Tumor-to-blood (4 h p.i.) was 0.83 ± 0.10 and the Tumor-to-kidney (4 h p.i.) was 0.83 ± 0.14. The Tumor-to-liver (4 h p.i.) was 4.60 ± 1.34, the Blood (8 h p.i.) was 23.5 ± 0.74 % IA/g and the Bone (8 h p.i.) was 2.71 ± 0.21 % IA/g. The Heart (8 h p.i.) was 8.12 ± 0.46 % IA/g, the Intestines (8 h p.i.) was 3.70 ± 0.40 % IA/g and the Kidneys (8 h p.i.) was 28.8 ± 1.49 % IA/g. For the same molecule, the Liver (8 h p.i.) was 4.87 ± 0.42 % IA/g, the Lung (8 h p.i.) was 12.21 ± 1.32 % IA/g and the Muscle (8 h p.i.) was 2.01 ± 0.10 % IA/g. The “PC-3 PIP Tumor” value (8 h p.i.) was 31.0 ± 5.79 % IA/g, the “PC-3 flu Tumor” value (8 h p.i.) was 5.98 ± 0.91 % IA/g and the Salivary glands (8 h p.i.) was 5.49 ± 0.59 % IA/g. The Spleen (8 h p.i.) was 4.10 ± 0.14 % IA/g, the Stomach (8 h p.i.) was 2.92 ± 0.17 % IA/g and the Tumor-to-blood (8 h p.i.) was 1.32 ± 0.29. For the same molecule, the Tumor-to-kidney (8 h p.i.) was 1.07 ± 0.18, the Tumor-to-liver (8 h p.i.) was 6.38 ± 1.28 and the Blood (24 h p.i.) was 17.3 ± 1.38 % IA/g. It also gave a Bone (24 h p.i.) of 2.02 ± 0.31 % IA/g, a Heart (24 h p.i.) of 6.60 ± 1.01 % IA/g and an Intestines (24 h p.i.) of 2.19 ± 0.23 % IA/g. It also gave a Kidneys (24 h p.i.) of 24.7 ± 1.85 % IA/g, a Liver (24 h p.i.) of 3.35 ± 0.26 % IA/g and a Lung (24 h p.i.) of 9.86 ± 0.57 % IA/g. For the same molecule, the Muscle (24 h p.i.) was 1.61 ± 0.18 % IA/g, the “PC-3 PIP Tumor” value (24 h p.i.) was 53.8 ± 5.61 % IA/g and the “PC-3 flu Tumor” value (24 h p.i.) was 5.47 ± 0.67 % IA/g. It also gave a Salivary glands (24 h p.i.) of 4.69 ± 0.33 % IA/g, a Spleen (24 h p.i.) of 3.75 ± 0.21 % IA/g and a Stomach (24 h p.i.) of 1.39 ± 0.27 % IA/g. For the same molecule, the Tumor-to-blood (24 h p.i.) was 3.13 ± 0.35, the Tumor-to-kidney (24 h p.i.) was 2.17 ± 0.06 and the Tumor-to-liver (24 h p.i.) was 16.1 ± 1.75. The Blood (48 h p.i.) was 12.5 ± 3.78 % IA/g, the Bone (48 h p.i.) was 1.63 ± 0.56 % IA/g and the Heart (48 h p.i.) was 4.40 ± 1.18 % IA/g. It also gave an Intestines (48 h p.i.) of 1.73 ± 0.50 % IA/g, a Kidneys (48 h p.i.) of 22.6 ± 2.69 % IA/g and a Liver (48 h p.i.) of 2.53 ± 0.77 % IA/g. The Lung (48 h p.i.) was 7.45 ± 2.06 % IA/g, the Muscle (48 h p.i.) was 1.32 ± 0.41 % IA/g and the “PC-3 PIP Tumor” value (48 h p.i.) was 72.3 ± 24.7 % IA/g. For the same molecule, the “PC-3 flu Tumor” value (48 h p.i.) was 5.69 ± 3.65 % IA/g, the Salivary glands (48 h p.i.) was 3.45 ± 1.09 % IA/g and the Spleen (48 h p.i.) was 3.79 ± 0.89 % IA/g. For the same molecule, the Stomach (48 h p.i.) was 1.49 ± 0.48 % IA/g, the Tumor-to-blood (48 h p.i.) was 5.94 ± 1.53 and the Tumor-to-kidney (48 h p.i.) was 3.17 ± 0.84. It also gave a Tumor-to-liver (48 h p.i.) of 29.0 ± 5.26, a Blood (96 h p.i.) of 7.37 ± 0.64 % IA/g and a Bone (96 h p.i.) of 1.07 ± 0.27 % IA/g. For the same molecule, the Heart (96 h p.i.) was 3.15 ± 0.28 % IA/g, the Intestines (96 h p.i.) was 1.21 ± 0.26 % IA/g and the Kidneys (96 h p.i.) was 16.1 ± 1.69 % IA/g. For the same molecule, the Liver (96 h p.i.) was 1.78 ± 0.03 % IA/g, the Lung (96 h p.i.) was 5.56 ± 0.54 % IA/g and the Muscle (96 h p.i.) was 0.91 ± 0.15 % IA/g. For the same molecule, the “PC-3 PIP Tumor” value (96 h p.i.) was 75.7 ± 2.46 % IA/g, the “PC-3 flu Tumor” value (96 h p.i.) was 3.52 ± 0.54 % IA/g and the Salivary glands (96 h p.i.) was 2.19 ± 0.1 % IA/g. For the same molecule, the Spleen (96 h p.i.) was 3.23 ± 0.53 % IA/g, the Stomach (96 h p.i.) was 0.91 ± .010 % IA/g and the Tumor-to-blood (96 h p.i.) was 10.3 ± 0.57. For the same molecule, the Tumor-to-kidney (96 h p.i.) was 4.7 ± 0.38, the Tumor-to-liver (96 h p.i.) was 42.6 ± 1.90 and the Blood (144 h p.i.) was 6.02 ± 0.60 % IA/g. The Bone (144 h p.i.) was 1.14 ± 0.23 % IA/g, the Heart (144 h p.i.) was 2.55 ± 0.25 % IA/g and the Intestines (144 h p.i.) was 0.88 ± 0.18 % IA/g. For the same molecule, the Kidneys (144 h p.i.) was 11.2 ± 3.82 % IA/g, the Liver (144 h p.i.) was 1.50 ± 0.14 % IA/g and the Lung (144 h p.i.) was 4.99 ± 1.00 % IA/g. The Muscle (144 h p.i.) was 0.54 ± 0.07 % IA/g, the “PC-3 PIP Tumor” value (144 h p.i.) was 68.9 ± 8.80 % IA/g and the “PC-3 flu Tumor” value (144 h p.i.) was 2.77 ± 0.41 % IA/g. For the same molecule, the Salivary glands (144 h p.i.) was 1.67 ± 0.27 % IA/g, the Spleen (144 h p.i.) was 2.94 ± 0.39 % IA/g and the Stomach (144 h p.i.) was 0.73 ± 0.10 % IA/g. The Tumor-to-blood (144 h p.i.) was 11.4 ± 0.47, the Tumor-to-kidney (144 h p.i.) was 6.44 ± 1.27 and the Tumor-to-liver (144 h p.i.) was 46.0 ± 2.53. For the same molecule, the Blood (192 h p.i.) was 5.29 ± 0.18 % IA/g, the Bone (192 h p.i.) was 0.83 ± 0.22 % IA/g and the Heart (192 h p.i.) was 2.08 ± 0.14 % IA/g. For the same molecule, the Intestines (192 h p.i.) was 0.96 ± 0.03 % IA/g, the Kidneys (192 h p.i.) was 7.35 ± 0.92 % IA/g and the Liver (192 h p.i.) was 1.25 ± 0.20 % IA/g. For the same molecule, the Lung (192 h p.i.) was 4.17 ± 0.68 % IA/g, the Muscle (192 h p.i.) was 0.62 ± 0.04 % IA/g and the “PC-3 PIP Tumor” value (192 h p.i.) was 58.9 ± 12.4 % IA/g. The “PC-3 flu Tumor” value (192 h p.i.) was 2.42 ± 0.23 % IA/g, the Salivary glands (192 h p.i.) was 1.55 ± 0.06 % IA/g and the Spleen (192 h p.i.) was 3.13 ± 0.90 % IA/g. It also gave a Stomach (192 h p.i.) of 0.78 ± 0.07 % IA/g, a Tumor-to-blood (192 h p.i.) of 11.1 ± 1.97 and a Tumor-to-kidney (192 h p.i.) of 7.97 ± 0.70. The Tumor-to-liver (192 h p.i.) was 47.1 ± 2.44.

Cc1ccc(CCCC(=O)NCCCCC(NC(=O)CN2CCN(CC(=O)O)CCN(CC(=O)O)CCN(CC(=O)O)CC2)C(=O)NCC2CCC(C(=O)NC(Cc3ccc4ccccc4c3)C(=O)NCCCCC(NC(=O)NC(CCC(=O)O)C(=O)O)C(=O)O)CC2)cc1 (stereo not drawn) [44Sc-PSMA-ALB-06, metal not drawn] showed a Tumor-to-blood (1 h p.i.) of 0.94 ± 0.11, a Tumor-to-kidney (1 h p.i.) of 0.77 ± 0.12 and a Tumor-to-liver (1 h p.i.) of 4.28 ± 0.52. The Blood (4 h p.i.) was 18.4 ± 1.00 % IA/g, the Bone (4 h p.i.) was 2.50 ± 0.35 % IA/g and the Heart (4 h p.i.) was 6.48 ± 0.50 % IA/g. For the same molecule, the Intestines (4 h p.i.) was 2.50 ± 0.13 % IA/g, the Kidneys (4 h p.i.) was 28.8 ± 2.46 % IA/g and the Muscle (4 h p.i.) was 2.24 ± 0.10 % IA/g. The “PC-3 PIP Tumor” value (4 h p.i.) was 61.7 ± 7.32 % IA/g, the “PC-3 flu Tumor” value (4 h p.i.) was 4.37 ± 0.43 % IA/g and the Salivary glands (4 h p.i.) was 4.55 ± 0.41 % IA/g. The Spleen (4 h p.i.) was 4.10 ± 0.54 % IA/g, the Tumor-to-blood (4 h p.i.) was 3.35 ± 0.20 and the Tumor-to-kidney (4 h p.i.) was 2.14 ± 0.15. The Tumor-to-liver (4 h p.i.) was 17.93 ± 3.32, the Blood (6 h p.i.) was 15.6 ± 0.75 % IA/g and the Bone (6 h p.i.) was 2.54 ± 0.27 % IA/g. It also gave an Intestines (6 h p.i.) of 2.07 ± 0.34 % IA/g, a Kidneys (6 h p.i.) of 21.7 ± 0.42 % IA/g and a Liver (6 h p.i.) of 3.67 ± 0.68 % IA/g. The Lung (6 h p.i.) was 9.44 ± 0.86 % IA/g, the “PC-3 PIP Tumor” value (6 h p.i.) was 72.9 ± 11.1 % IA/g and the “PC-3 flu Tumor” value (6 h p.i.) was 3.87 ± 0.45 % IA/g. For the same molecule, the Salivary gland (6 h p.i.) was 4.03 ± 0.22 % IA/g, the Spleen (6 h p.i.) was 3.67 ± 0.37 % IA/g and the Tumor-to-blood (6 h p.i.) was 4.69 ± 0.67. For the same molecule, the Tumor-to-kidney (6 h p.i.) was 3.35 ± 0.42 and the Tumor-to-liver (6 h p.i.) was 20.2 ± 3.43.
